Experiment [1] deals with stage II and III colon cancer, CRC subtypes. Put plainly: C-07 discovery cohort: oxaliplatin benefit by CRC intrinsic subtype (CRC-SSP-72), Kaplan Meier analysis. It counts as in vivo, human. The text has this:
FIG. 3 Kaplan Meier Plots of each CRC subtype using our gene signature by CRC-SSP-72 according to treatment (FULV versus FOLFOX) using recurrence free survival (RFS) as the end point. Among identified CRC subtypes, only Enterocyte received significant benefit (HR=0.315, p=0.005).
FIG. 4 Kaplan Meier Plots of the Enterocyte subtype and of all of the other subtypes (Goblet-like, Inflammatory, Stem-like and TA) combined into one group (Others) There is significant treatment-group interaction (p=0.012)
We have profiled 296 genes in 1840 patients using the nCounter Assay system (Nanostring Technologies, Seattle Wash.). Clinical data and nCounter data for the discovery dataset were merged and anonymized by the honest broker at the University of Pittsburgh as defined by standard operations under IRB approval of NSABP Biospecimen Bank and Biostatistics Center. We have developed a predictive algorithm to classify tumors into oxaliplatin benefit or no benefit group using discovery cohort of 848 patients without access to the data from the remaining 992 patients (validation cohort).
For C07, 2409 patients were enrolled in C-07 and all cases with tumor blocks, proper consent, clinical follow-up information and sufficient RNA yields were used in this study (N=1840). These cases were split into a discovery (N=848) and a validation (N=992) cohort (FIG. 1). […]

The test system of another experiment is early-stage colon cancer. As to conditions: recent MOSAIC analysis; all stage II or high risk stage II patients; cited from earlier work.
Experiment [2] has as its system stage II and III colon adenocarcinoma. To be noted: oxaliplatin added to FU and LV; trials MOSAIC and C-07; cited from earlier work.

Turning to `O=C1[O][Pt]2([NH][C@@H]3CCCC[C@H]3[NH]2)[O]C1=O` [oxaliplatin], the “recurrence free survival (RFS) HR” value in experiment [1] (Enterocyte subtype, FULV versus oxaliplatin arm, p=0.005) amounted to 0.315. Further, the “benefit from oxaliplatin by subtype” value in experiment [1] (enterocyte subtype versus TA, goblet, inflammatory and stem-like, treatment-group interaction p=0.012) is listed as “only the enterocyte subtype received benefit”. Besides, the “benefit in stage II patients” value in the experiment with early-stage colon cancer is “no statistically significant benefit”. Further, in experiment [2], the “disease free survival (DFS)” value is on record as “significantly improved disease free survival”.

The record behind these values is patent US10166210B2, “Methods of subtyping CRC and their association with treatment of colon cancer patients with oxaliplatin” (NSABP Foundation, Inc., priority 2014, dated 2019).
